Results taken from US11364275B2, “Linear lipopeptide paenipeptins and methods of using the same” (priority 2017, dated 2022).
In brackets after ≈: the same amount, converted by molar mass. Where two headings read alike, the source gives them in different places. Where a SMILES comes first, the peptide text is derived from it. [ ]: non-standard residue; d: D form. The star is where a group is joined. Decanoyl = CCCCCCCCCC(=O)*; Heptanoyl = CCCCCCC(=O)*; Dab = NCC[C@H](N)C(=O)O

How the values were obtained:
S. aureus ATCC 29213 [1] = format: cell-based, Staphylococcus aureus; conditions: ATCC 29213
Experimental: The impact of human serum on the antibacterial activity of selected paenipeptin analogues was determined using a procedure similar to that used for MIC determination as described above except that the microbiological medium was replaced by human serum (MP Biomedicals, Solon, Ohio). Paenipeptin analogues were two-fold diluted in 100% human serum and mixed with an equal volume of 90% serum containing approximately 1.5×10^5 CFU/mL of E. coli ATCC 25922 or S. aureus ATCC 29213. The final paenipeptin concentrations ranged from 0.5-64 μg/mL in 95% serum. The MIC in the presence of serum was then tested as described above.

[2] = system: Escherichia coli ATCC 25922; format: cell-based; conditions: ATCC 25922
rabbit red blood cells = assay: Hemolytic activity; format: cell-based; conditions: for Hemolysis: relative to Triton X-100
Experimental: Hemolytic activity was evaluated using defibrinated rabbit blood in a 96-well plate as described previously. A nonionic surfactant Triton X-100, which is capable of lysing red blood cells (RBCs), was used at 0.1% as a positive control. Briefly, rabbit blood (Hardy Diagnostics, Santa Maria, Calif.) was diluted with phosphate buffered saline (PBS; pH 7.2) at a 1:19 ratio (v/v) and free hemoglobin was removed by washing RBCs and centrifugation four times at 1,000×g at 4° C. for 5 min. Aliquots (50 μL) of washed RBCs were incubated with 150 μL two-fold dilutions of paenipeptin analogues at final concentrations of 16-128 μg/mL at 37° C. for 30 min in a microtiter plate (NBS, Corning Inc.). After incubation, treated RBCs were gently mixed by repeated pipetting. Aliquots (20 μL) of the cell suspension were mixed with 200 μL PBS in a new 96-well plate and centrifuged at 2,204×g for 10 min. The supernatant was transferred to a new 96-well plate for absorbance measurement at 415 nm using a Cell Imaging Multimode Reader (Cytation 3, BioTek; Winooski, Vt.). The percent hemolysis observed after exposure to each paenipeptin analogue was calculated relative to Triton X-100.

E. coli ATCC 25922 = format: cell-based, Escherichia coli
Description: (§1) The surviving cells from each antimicrobial concentration with no visible growth were enumerated by plating on tryptic soy agar (TSA). MBC was defined as the lowest concentration of the antimicrobial agent that led to at least a 99.9% reduction in the number of viable bacterial cells relative to the initial inoculum. There were three independent experiments with one replicate in each experiment.

[3] = system: Pseudomonas aeruginosa ATCC 27853; format: cell-based; conditions: ATCC 27853
Experimental: (§3) The minimum inhibitory concentration (MIC) of paenipeptin analogues was determined using the broth microdilution method (Wirker, M. A. Methods for Dilution Antimicrobial Susceptibility Tests for Bacteria that Grow Aerobically: Approved Standard M07-A8; Clinical and Laboratory Standards Institute, Wayne, Pa., 2009). Seven reference strains (Acinetobacter baumannii ATCC 19606, Escherichia coli ATCC 25922, Klebsiella pneumoniae ATCC 13883, Pseudomonas aeruginosa ATCC 27853, Enterococcus faecium ATCC 19434, Staphylococcus aureus ATCC 29213 and methicillin-resistant S. aureus ATCC 43300) were subjected to MIC testing.
(§4) Paenipeptin analogues were two-fold diluted in tryptic soy broth (TSB; Becton Dickinson) and mixed with an equal volume of bacterial suspensions in TSB containing approximately 1.5×10^5 colony-forming units (CFU)/mL in a clear UV-sterilized 96-well microtiter plate (NBS, Corning Inc., Corning, N.Y.). […] The microtiter plate was incubated at 37° C. for 18-20 h.

S. aureus ATCC 29213 [4] = format: cell-based, Staphylococcus aureus
Description: as §1

S. aureus ATCC 43300 = format: cell-based, Staphylococcus aureus
Description: as §1

[5] = system: Acinetobacter baumannii ATCC 19606; format: cell-based; conditions: ATCC 19606
Experimental: as §3, §4

[6] = system: methicillin-resistant S. aureus ATCC 43300; format: cell-based, Staphylococcus aureus; conditions: ATCC 43300
P. aeruginosa ATCC 27853 = format: cell-based, Pseudomonas aeruginosa
Description: as §1

E. faecium ATCC 19434 = format: cell-based, Enterococcus faecium
Description: as §1

[7] = system: methicillin-resistant S. aureus strain LAC biofilm; assay: Established catheter-associated biofilm in vitro; format: cell-based, Staphylococcus aureus; conditions: data not shown
Experimental: Each well was inoculated with the methicillin-resistant S. aureus strain LAC or P. aeruginosa ATCC 27853 to an OD600nm of 0.05. […] After 72 h of exposure, catheters were rinsed with PBS, followed by sonication (for S. aureus) or vigorous vortexing (for P. aeruginosa) to quantitatively recover adherent bacteria. Viable S. aureus or P. aeruginosa cells were enumerated by plating serial dilutions on TSA.

K. pneumoniae ATCC 13883 = format: cell-based, Klebsiella pneumoniae
Description: as §1

[8] = system: Klebsiella pneumoniae ATCC 13883; format: cell-based; conditions: ATCC 13883
Experimental: as §3, §4

A. baumannii ATCC 19606 = format: cell-based, Acinetobacter baumannii
Description: as §1

[9] = system: Staphylococcus aureus ATCC 29213; format: cell-based; conditions: ATCC 29213
Experimental: as §3, §4

[10] = system: A. baumannii FDA-CDC AR 0063; assay: Time-kill kinetics in 95% human serum, alone and combined; format: cell-based, Acinetobacter baumannii; conditions: A. baumannii AR 0063, 24 h
Experimental: Bacterial viable counts were determined at 0, 2, 4, 6, and 24 h after antimicrobial treatment. Bacterial surviving counts at 24 h endpoints were subjected to analysis of variance (ANOVA) followed by Tukey's honest significant difference (HSD) tests using SPSS Statistics (version 24; SPSS, Inc., Chicago, Ill., USA).
To further test the therapeutic potential of paenipeptin analogues, the time-kill kinetics assays of paenipeptins alone or in combination with other antibiotics were performed in 95% human serum in vitro. Without antimicrobial treatment, the population of A. baumannii FDA-CDC AR 0063 increased from 5.8 log to 9.3 log within 24 h. […] (FIG. 7A).

[11] = system: A. baumannii FDA-CDC AR 0083; assay: microbe, parasite or virus in culture; conditions: Acinetobacter baumannii, read-out: MIC alone
[12] = system: A. baumannii FDA-CDC AR 0070; assay: microbe, parasite or virus in culture; conditions: Acinetobacter baumannii, read-out: MIC alone
[13] = system: K. pneumoniae FDA-CDC AR 0080; assay: microbe, parasite or virus in culture; conditions: Klebsiella pneumoniae, read-out: MIC alone
[14] = system: K. pneumoniae FDA-CDC AR 0034; assay: microbe, parasite or virus in culture; conditions: Klebsiella pneumoniae, read-out: MIC alone
[15] = system: K. pneumoniae FDA-CDC AR 0044; assay: microbe, parasite or virus in culture; conditions: Klebsiella pneumoniae, read-out: MIC alone
[16] = system: Klebsiella pneumoniae ATCC 13883; assay: MIC of antibiotics with or without paenipeptin analogues (potentiation); format: cell-based; conditions: Klebsiella pneumoniae, ATCC13883
Description: (§2) Gram-negative bacteria, including Acinetobacter and Klebsiella, are intrinsically resistant to the hydrophobic antibiotic rifampicin.

[17] = system: Acinetobacter baumannii ATCC 19606; assay: as above; format: cell-based; conditions: Acinetobacter baumannii, ATCC19606; A. baumannii ATCC 19606; rifampicin alone; read-out: MIC of rifampicin at 0 μg/mL of paenipeptin analogues
Description: as §2

[18] = system: K. pneumoniae FDA-CDC AR 0097; assay: microbe, parasite or virus in culture; conditions: Klebsiella pneumoniae, read-out: MIC alone
[19] = system: A. baumannii FDA-CDC AR 0037; assay: microbe, parasite or virus in culture; conditions: Acinetobacter baumannii, read-out: MIC alone
[20] = system: K. pneumoniae FDA-CDC AR 0068; assay: microbe, parasite or virus in culture; conditions: Klebsiella pneumoniae, read-out: MIC alone
[21] = system: A. baumannii FDA-CDC AR 0063; assay: microbe, parasite or virus in culture; conditions: Acinetobacter baumannii, read-out: MIC alone
[22] = system: A. baumannii FDA-CDC AR 0052; assay: microbe, parasite or virus in culture; conditions: Acinetobacter baumannii, read-out: MIC alone

Molecule CCCCCCC(=O)N[C@@H](CCN)C(=O)N[C@@H](Cc1ccccc1)C(=O)N[C@@H](CCN)C(=O)N[C@H](Cc1ccccc1)C(=O)N[C@@H](CC(C)C)C(=O)N[C@@H](CCN)C(=O)N[C@H](CC(C)C)C(=O)N[C@@H](Cc1ccccc1)C(=O)N[C@@H](CO)C(N)=O [Analogue 7] (Heptanoyl-[Dab]F[Dab][dF]L[Dab][dL]FS-NH2) has a Minimum inhibitory concentration (S. aureus ATCC 29213 [1]) of 32 to 64 µg/mL, an MIC [2] of 0.5 to 2 µg/mL and a Minimum inhibitory concentration [2] of 0.5 to 2 µg/mL. For the same molecule, the Hemolysis (rabbit red blood cells; 32 μg/mL) was 5.10 ± 1.26%, the Hemolysis (rabbit red blood cells; 64 μg/mL) was 18.8 ± 2.44% and the Hemolysis (rabbit red blood cells; 128 μg/mL) was 64.2 ± 3.28%. It also gave an MBC (E. coli ATCC 25922) of 8 to 16 µg/mL, an MIC [3] of 1 to 2 µg/mL and an MBC (S. aureus ATCC 29213 [4]) of 8 to 32 µg/mL. The MBC (S. aureus ATCC 43300) was 8 to 16 µg/mL and the MIC [5] was 2 to 4 µg/mL.

In the case of CCCCCCCCCC(=O)N[C@@H](CCN)C(=O)N[C@H](C(=O)N[C@@H](CCN)C(=O)N[C@H](Cc1ccccc1)C(=O)N[C@@H](CC(C)C)C(=O)N[C@@H](CCN)C(=O)N[C@@H](C(=O)N[C@@H](CC(C)C)C(=O)N[C@@H](CO)C(N)=O)C(C)C)[C@@H](C)CC [Analogue 12] (Decanoyl-[Dab]I[Dab][dF]L[Dab][dV]LS-NH2), the MIC [6] was 2 to 4 µg/mL, the MIC [2] was 2 to 8 µg/mL and the Minimum inhibitory concentration [2] was 2 to 8 µg/mL. The MBC (P. aeruginosa ATCC 27853) was 2 to 4 µg/mL, the MBC (E. faecium ATCC 19434) was 2 to 4 µg/mL and the “activity against established catheter-associated biofilm (in words)” value [7] was “no activity”. The MBC (K. pneumoniae ATCC 13883) was 4 to 8 µg/mL, the Hemolysis (rabbit red blood cells; 16 μg/mL) was 14.3 ± 4.25% and the Hemolysis (rabbit red blood cells; 32 μg/mL) was 37.2 ± 8.62%. The Hemolysis (rabbit red blood cells; 64 μg/mL) was 73.4 ± 7.59%, the “hemolytic activity (in words)” value (rabbit red blood cells; 128 μg/mL) was “strong hemolytic activity” and the Hemolysis (rabbit red blood cells; 128 μg/mL) was 93.9 ± 7.57%. It also gave an MIC [8] of 2 to 4 µg/mL, an MBC (A. baumannii ATCC 19606) of 0.5 to 2 µg/mL and an MIC [3] of 1 to 2 µg/mL. The MBC (S. aureus ATCC 29213 [4]) was 4 to 8 µg/mL, the MBC (S. aureus ATCC 43300) was 2 to 4 µg/mL and the MIC [5] was 0.5 to 2 µg/mL. It also gave an MIC [9] of 2 to 4 µg/mL and a Minimum inhibitory concentration [9] of 2 to 4 µg/mL.

In the case of CO[C@H]1/C=C/O[C@@]2(C)Oc3c(C)c(O)c4c(O)c(c(/C=N/N5CCN(C)CC5)c(O)c4c3C2=O)NC(=O)/C(C)=C\C=C\[C@H](C)[C@H](O)[C@@H](C)[C@@H](O)[C@@H](C)[C@H](OC(C)=O)[C@@H]1C [rifampicin], the “log reduction of cell population, single agent at 4 μg/ml” value [10] was 1.4 log, the MIC [11] was 32 µg/mL (≈ 38.9 µM) and the MIC [12] was 1 µg/mL (≈ 1.22 µM). The MIC [13] was over 32 µg/mL, the MIC [14] was 16 µg/mL (≈ 19.4 µM) and the MIC [15] was 32 µg/mL (≈ 38.9 µM). The MIC ([16]; K. pneumoniae ATCC 13883, rifampicin alone, read-out: MIC of rifampicin at 0 μg/mL of paenipeptin analogues) was 16 µg/mL, the MIC ([16]; K. pneumoniae, read-out: MIC of rifampicin alone) was 19.4 µM and the MIC [17] was 16 µg/mL. For the same molecule, the MIC [18] was 32 µg/mL (≈ 38.9 µM), the MIC [19] was 2 µg/mL (≈ 2.43 µM) and the MIC [20] was 32 µg/mL (≈ 38.9 µM). It also gave an MIC [21] of 1 µg/mL (≈ 1.22 µM) and an MIC [22] of 1 µg/mL (≈ 1.22 µM).
